Test [1] relates to human extrahepatic cholangiocarcinoma cell line (TFK-1 cell line). The test is described as follows: Tumor growth-inhibitory effect in model subcutaneously transplanted with human extrahepatic cholangiocarcinoma cell line (TFK-1). Format: in vivo. Particulars: TFK-1 subcutaneous xenograft, nude mice; mesylate of compound A 1, 3, 10, 30, 100 mg/kg orally once a day for 14 days. As to the method:
An antitumor effect produced by administration of compound A was evaluated with six nude mice in each group (CAnN.Cg-Foxn1^nu/CrlCrlj, female, Charles River Laboratories Japan, Inc.). The human-derived extrahepatic cholangiocarcinoma TFK-1 cell lines (Riken BioResource Center) were suspended in RPMI1640 medium (Wako Pure Chemical Industries, Ltd., supplemented with 10% FBS) at a concentration of 2×10^8 cells/mL and were mixed well. The cell suspension was further mixed with an equal amount of Matrigel basement membrane matrix (Corning Incorporated) to prepare a cell suspension at 1×10^8 cells/mL, and aliquots of 0.1 mL were subcutaneously transplanted into the right flank of each mouse. Seven days after transplantation, the longest diameter and the short axis of the tumors were measured by an electronic digital caliper (ABS Digimatic Caliper, Mitutoyo Corporation). The mice were divided into groups so that the average of tumor volumes of each group became approximately equal. In this regard, the tumor volume was calculated according to the following formula.
(§1) Tumor volume (mm^3)=longest diameter (mm)×short axis (mm)×short axis (mm)/2 […]
(§2) The tumor volume was measured on the day when the administration was started (Day 1), Day 4, Day 8, and Day 11, and the day following the last day of administration (Day 15). […]
On the technique in general: A xenograft is tissue or cells of one species grown in another, often human tumour cells in immunodeficient mice.

Test [2] deals with human cholangiocarcinoma cell line (OZ cell line). Description: Tumor growth-inhibitory effect in model subcutaneously transplanted with human cholangiocarcinoma cell line (OZ). Format: in vivo. Particulars: OZ subcutaneous xenograft, nude mice; mesylate of compound A 1, 3, 10, 30, 100 mg/kg orally once a day for 14 days. As to the method: An antitumor effect produced by administration of compound A was evaluated with five nude mice in each group (CAnN.Cg-Foxn1^nu/CrlCrlj, female, Charles River Laboratories Japan, Inc.). The human-derived cholangiocarcinoma OZ cell lines (JCRB Cell Bank) were suspended in Williams'E (Sigma-Aldrich Corporation, supplemented with 2 mmol/L L-glutamine and 10% FBS) at a concentration of 2×10^8 cells/mL and were mixed well. The cell suspension was further mixed with an equal amount of Matrigel basement membrane matrix (Corning Incorporated) to prepare a cell suspension at 1×10^8 cells/mL, and aliquots of 0.1 mL were subcutaneously transplanted into the right flank of each mouse. Thirteen days after transplantation, the longest diameter and the short axis of the tumors were measured by an electronic digital caliper (ABS Digimatic Caliper, Mitutoyo Corporation). The mice were divided into groups so that the average of tumor volumes of each group became approximately equal. In this regard, the tumor volume was calculated according to the following formula.
as §1
The tumor volume was measured on the day when the administration was started (Day 1), Day 5, Day 8, and Day 12, and the clay following the last day of administration (Day 15). […]

For test [3], the system named is human carcinoma of the ampulla of Vater cell line (SNU-869 cell line). The test is described as follows: Tumor growth-inhibitory effect in model subcutaneously transplanted with human carcinoma of the ampulla of Vater cell line (SNU-869). In kind it is in vivo. The settings on record: SNU-869 subcutaneous xenograft, nude mice; mesylate of compound A 1, 3, 10, 30, 100 mg/kg orally once a day for 14 days. As to the method:
An antitumor effect produced by administration of compound A was evaluated with six nude mice in each group (CAnN.Cg-Foxn1^nu/CrlCrlj, female, Charles River Laboratories Japan, Inc.). The human-derived human carcinoma of the ampulla of Vater SNU-869 cell lines (Creative Bioarray) were suspended in RPMI1640 medium (Wako Pure Chemical Industries, Ltd., supplemented with 25 mM HEPES and 10% FBS) at a concentration of 2×10^8 cells/mL and were mixed well. The cell suspension was further mixed with an equal amount of Matrigel basement membrane matrix (Corning Incorporated) to prepare a cell suspension at 1×10^8 cells/mL, and aliquots of 0.1 mL were subcutaneously transplanted into the right flank of each mouse. Seven days after transplantation, the longest diameter and the short axis of the tumors were measured by an electronic digital caliper (ABS Digimatic Caliper, Mitutoyo Corporation). The mice were divided into groups so that the average of tumor volumes of each group became approximately equal. In this regard, the tumor volume was calculated according to the following formula.
as §1, §2

In test [4] the test system is unresectable biliary tract cancer. Description: Multicenter, unblinded, phase II clinical trial in patients with unresectable biliary tract cancer after combination chemotherapy involving gemcitabine (interim analysis). Format: in vivo, human. The source says:
This clinical trial was a multicenter, single-group, unblinded clinical trial for patients with a prior treatment history who had received one regimen using two-drug combination chemotherapy involving gemcitabine (two-drug combination chemotherapy using gemcitabine and cisplatin, or gemcitabine and another platinum-based drug or a fluorinated pyrimidine drug) for their unresectable biliary tract cancers.
This clinical trial was composed of three periods, which were a pretreatment period, an administration period, and a follow-up period. During the pretreatment period, screening was performed within 21 days. The administration period was composed of administration of mesylate of compound A as an investigational drug in each cycle and tumor assessment performed every 6 to 8 weeks. The follow-up period was started immediately after the day when administration was discontinued and was continued while the subject was alive until withdrawal of consent by the subject or completion of the clinical trial.
The investigational drug, mesylate of compound A, was administered orally once a day in a cycle of 28 days at a dose of 24 mg in terms of compound A in free form, and administration was continued until disease progression, an unacceptable adverse event, withdrawal of consent by the subject, or the like occurred.
The primary objective of the clinical trial was to determine an objective response rate (ORR) of the investigational drug for patients with an unresectable biliary tract cancer after combination chemotherapy involving gemcitabine.
The secondary objective of the clinical trial was to determine a progression-free survival (PFS), an overall survival (OS), a disease control rate (DCR), a clinical benefit rate (CBR), adverse events (AEs), and the number of subjects who developed serious adverse events (SAEs), and a blood concentration. In this context, ORR is defined as a rate of subjects with their best overall response (BOR) being complete response (CR) or partial response (PR). […]

In the case of `COc1cc2nccc(Oc3ccc(NC(=O)NC4CC4)c(Cl)c3)c2cc1C(N)=O` [compound A, 4-[3-chloro-4-(cyclopropylaminocarbonyl)aminophenoxy]-7-methoxy-6-quinolinecarboxamide], the “antitumor effect (tumor volume on Day 15 vs control)” value in test [1], in test [2] and in test [3] was “dose-dependent antitumor effect” in each case. In addition, the “stable disease (SD, 6 weeks or more), percentage of patients” value in test [4] (17 patients, mesylate of compound A orally once a day, 24 mg in terms of free form, 28-day cycles, 13 patients) worked out at 76.5%. Moreover, in test [4] (17 patients, mesylate of compound A orally once a day, 24 mg in terms of free form, 28-day cycles, one patient), the “partial response (PR), percentage of patients” value is 5.9%. Further, the “tendency for tumor regression, number of patients” value in test [4] (among 13 SD patients, 24 mg orally once a day) stood at 8 patients.
